Where a name gives a salt, the structure may show the parent alone. Read-outs that look alike come from different tables or passages of the source.
Columns and labels:
HIV-1 IIIB = assay: In vitro anti-HIV activity test in MT-4 cells infected with HIV-1 IIIB (CellTiter Glo); format: cell-based; conditions: Human immunodeficiency virus 1, MT4, 120 h; MT-4 cells infected with HIV-1 IIIB, 5 days; read-out: EC50
Protocol: 9.1. Dilution and concentrations of the compounds and the reference compound (CN01813161GS-7340, TDF) were the same as those in example 1.
9.2. In vitro anti-HIV activity test: after MT-4 cells were infected with 24 TCID50HIV-1 IIIB/1×10^5 cells (2.4 TCID50/well) at 37° C. for 1 hour, they were plated in the 96-well plate containing the compounds of different concentrations ([…]) and cultured at 37° C. in 5% CO2 for 5 days. CellTiter Glo was used to determine the activity to calculate the EC50 value.
(§1) 9.4. Data analysis and calculation of the inhibition percentage: the activity percentage was calculated using the following formula: Activity (%) =(Raw datacpd−AverageVC)/(AverageCC−AverageVC)*100Cell Viability (%)=Raw datacpd/AverageCC*100

HBV = assay: Cell based anti-HBV activity test, HBV DNA in HepG2.2.15 cell supernatant by qPCR; conditions: Hepatitis B virus, HepG2.2.15, HepG2.2.15 cells, read-out: EC50
Protocol: (§2) 8.1. Dilution of the compounds: the initial concentration of each compound in the in vitro anti-HBV activity test was 1 μM, with 3-fold serial dilution to 8 concentrations; the initial concentration of each compound in the cytotoxicity test was 100 μM, with 3-fold serial dilution to 8 concentrations; DMSO was used for the dilution of the compound mother liquor. The initial concentrations of the reference compound TDF for the anti-HBV activity test in vitro and the cytotoxicity test were all set at 0.2 μM, with 3-fold serial dilution to 8 concentrations.
8.2. Anti-HBV activity test in vitro: the HepG2.2.15 cells were plated in the 96-well plate (4×10^4 cells/well), and cultured overnight at 37° C. in 5% CO2. On second day, fresh culture solutions containing compounds of different concentrations were added to the culture wells. See Table 2 for the compound distribution. On 5th day, the used culture solutions in the culture wells were sucked and discarded, and fresh culture solutions containing compounds of different concentrations were added. On 8th day, the supernatant in the culture wells was collected for the extraction of HBV DNA in the supernatant. qPCR test was used to detect the concentration of HBV DNA content in the HepG2.2.15 supernatant.
8.4. Data analysis and calculation of the inhibition percentage and relative cell viability: The inhibition percentage was calculated using the following formula: % Inh.=[(HBV quantity of DMSO control−HBV quantity of sample)/HBV quantity of DMSO control]×100%
9.1 Drugs: the dilution method and concentrations of compound 3, the reference compound (CN201380030061.6, and the compound shown in claim 36 (abbreviation: compound 7), and the isomer thereof) were the same as those in example 1.
(§3) 9.2 Test method: the test was carried out according to the procedure in example 1.

[1] = Stability in the simulated intestinal fluid; format: in vitro ADME; conditions: 10 μM
Protocol: (§4) The following stability test were carried out according to the prior art, and the data of the stability test shown in the table were the residue percentages after the test compounds were incubated for different period of time under the test condition.

[2] = Stability in the human blood; format: in vitro ADME; conditions: 2 μM
Protocol: as §4

in vitro = format: cell-based; conditions: human, HepG2.2.15 cells
Protocol: (§5) The concentration of HBV DNA in the HepG2.2.15 cell supernatant was detected through the real-time fluorescence quantitative PCR (qPCR) method to determine the anti-HBV activity of the compound in the HepG2.2.15 cells, and the effect of the testing compounds to the HepG2.2.15 cell activity was detected through Cell-titer Blue.
as §2
(§6) 8.3. Treatment of the cells in the cell viability test: the HepG2.2.15 cells were plated in the 96-well plate (4×10^4 cells/well), and cultured overnight at 37° C. in 5% CO2. On 2nd day, fresh culture solutions containing compounds of different concentrations were added to the culture wells. See Table 3 for the compound distribution. On 5th day, the used culture solutions in the culture wells were sucked and discarded, and fresh culture solutions containing compounds of different concentrations were added. On 8th day, Cell-titer Blue agent was added to each well, and the microplate reader was used to detect the fluorescence value of each well.
(§7) The cell viability percentage was calculated using the following formula: % cell viability=(fluorescence of sample−fluorescence of medium control)/(fluorescence of DMSO control−fluorescence of medium control)[…] 100%
as §3

HepG2.2.15 cells = assay: in vitro; format: cell-based; conditions: comparative test, Table 4
Protocol: as §5, §2, §6, §7, §3

[3] = Cell viability test in MT-4 cells (CellTiter Glo); format: cell-based; conditions: human
Protocol: 9.3. Treatment of the cells in the cell viability test: parallel tests were carried out using the same method as that in 9.2, except that the 96-well plate containing the compounds of different concentrations were replaced with the blank 96-well plate, and CellTiter Glo was used to determine the cell viability to calculate the CC50 value.
as §1

[4] = Stability in the human liver S9; format: in vitro ADME; conditions: human liver S9, 1 μM
Protocol: as §4

hERG K-channel = hERG K-channel (Homo sapiens, UniProt Q12809); assay: hERG manual whole-cell patch clamp in CHO cells (cardiotoxicity study); conditions: IC50, hERG current, room temperature
Protocol: The CHO cells obtained from AVivaBiosciences that could stably express the hERG K-channel were used in the test, and the cells were incubated at 37° C. in 5% CO2 and under constant humidity.
The final concentration of DMSO in the extracellular fluid was not higher than 0.30%.
The whole-cell patch clamp technique was used on the Multiclamp patch-clamp amplifier to test the compound at room temperature, the output signal was digitalized using the DIgiDAta 1440 A/D-D/A plate, and the Pclamp10 software was used for the control of the recording. The minimum sealing resistance was set at 500 MOh/ms, and the minimum specific hERG current was set at 0.4 nA for quality control.
Clampfit (V10.2, Molecular Devices), Excel 2003 and GraphPad Prism 5.0 were used for the data analysis. The calculation formula of the current: I/Icontrol=Bottom+(Top−Bottom)/(1+10^((LogIC50−Log C)*Hillslope

[5] = Stability in the simulated gastric fluid; format: in vitro ADME; conditions: 10 μM
Protocol: as §4

[6] = oral, after intestinal absorption; cited from earlier work
[7] = Cell-titer Blue on 8th day, Table 3

hERG K-channel, sequence (Q12809 whole entry): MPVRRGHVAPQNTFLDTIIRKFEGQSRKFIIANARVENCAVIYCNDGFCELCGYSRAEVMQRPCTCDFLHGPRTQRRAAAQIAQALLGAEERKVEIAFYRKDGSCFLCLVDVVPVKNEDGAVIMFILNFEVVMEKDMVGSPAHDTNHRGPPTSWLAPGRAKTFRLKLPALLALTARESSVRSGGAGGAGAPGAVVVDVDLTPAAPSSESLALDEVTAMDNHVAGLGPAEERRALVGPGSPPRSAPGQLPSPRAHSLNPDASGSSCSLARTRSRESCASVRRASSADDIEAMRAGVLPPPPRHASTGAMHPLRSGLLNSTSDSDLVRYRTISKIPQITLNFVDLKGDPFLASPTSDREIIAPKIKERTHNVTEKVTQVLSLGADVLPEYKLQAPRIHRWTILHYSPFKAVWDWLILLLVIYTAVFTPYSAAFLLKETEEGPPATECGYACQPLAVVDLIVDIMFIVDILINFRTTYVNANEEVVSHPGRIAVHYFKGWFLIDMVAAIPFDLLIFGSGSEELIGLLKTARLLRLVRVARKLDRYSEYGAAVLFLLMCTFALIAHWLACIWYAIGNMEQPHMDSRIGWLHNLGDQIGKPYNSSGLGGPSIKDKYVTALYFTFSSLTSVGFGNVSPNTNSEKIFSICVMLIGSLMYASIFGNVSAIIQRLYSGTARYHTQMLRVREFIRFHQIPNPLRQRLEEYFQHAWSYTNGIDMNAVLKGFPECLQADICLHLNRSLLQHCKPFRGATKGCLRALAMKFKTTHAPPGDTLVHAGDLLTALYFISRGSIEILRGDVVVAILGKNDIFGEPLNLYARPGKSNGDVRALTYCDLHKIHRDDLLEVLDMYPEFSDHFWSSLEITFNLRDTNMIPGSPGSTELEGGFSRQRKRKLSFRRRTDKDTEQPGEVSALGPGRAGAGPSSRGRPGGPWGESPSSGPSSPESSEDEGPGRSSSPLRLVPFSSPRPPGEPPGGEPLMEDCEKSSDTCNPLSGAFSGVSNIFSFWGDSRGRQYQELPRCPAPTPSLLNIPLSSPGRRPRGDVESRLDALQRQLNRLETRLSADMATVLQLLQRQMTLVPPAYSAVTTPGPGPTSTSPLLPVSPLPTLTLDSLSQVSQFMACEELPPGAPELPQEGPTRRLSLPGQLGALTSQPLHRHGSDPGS

Row | SMILES | EC50 (HIV-1 IIIB) [µM] | EC50 (HBV; comparative test, Table 4) [µM] | % 0 min (residue percentage) [1] [%] | % 60 min (residue percentage) [1] [%] | % 120 min (residue percentage) [1] [%] | % 360 min (residue percentage) [1] [%] | % 1440 min (residue percentage) [1] [%] | % 0 min (residue percentage) [2] [%] | % 10 min (residue percentage) [2] [%] | % 30 min (residue percentage) [2] [%] | % 60 min (residue percentage) [2] [%] | % 120 min (residue percentage) [2] [%] | CC50 at 5 days [3] [µM] | CLlint(s9) [4] [µL/min/mg] | half-life at 1 μM [4] [min] | Remaining (T = 60 min) [4] [%] | CLlint(s9) ([4]; scaled per kg) [L/h/kg] | IC50 (hERG K-channel) [µM] | % 0 min (residue percentage) [5] [%] | % 60 min (residue percentage) [5] [%] | other results
1 | CC(C)OC(=O)[C@H](C)N[P@@](=O)(CO[C@H](C)Cn1cnc2c(N)ncnc21)OCc1ccccc1 (single isomer, unassigned) [Compound 3a] | 0.00513 | 0.00339 | 100 | 53.62 | 23.45 | 1.26 | 0.00 | 100 | 97.4 | 98.9 | 97.8 | 94.5 | 22.5 | 70.0 | 9.9 | 6 | 0.01478 | > 10 | 100 | 85.40 | CC50 (in vitro; [7]): > 100 µM; CC50 (HepG2.2.15 cells): > 100 µM; % 120 min (residue percentage) [5]: 58.07%; % 360 min (residue percentage) [5]: 14.41%; % 1440 min (residue percentage) [5]: 0.00%
2 | CC(C)OC(=O)[C@H](C)N[P@](=O)(CO[C@H](C)Cn1cnc2c(N)ncnc21)OCc1ccccc1 (single isomer, unassigned) [Compound 3b] | 0.00986 | 0.006 | 100 | 51.07 | 20.20 | 0.23 | 0.00 | 100 | 97.1 | 96.4 | 96.1 | 93.7 | 16.9 | 68.6 | 10.1 | 9 | 0.01449 | > 30 | 100 | 84.26 | EC50 (HBV; HBV DNA in supernatant on 8th day, Table 3): < 0.01 µM; CC50 (in vitro; [7]): > 100 µM; CC50 (HepG2.2.15 cells): > 100 µM; % 120 min (residue percentage) [5]: 58.54%; % 360 min (residue percentage) [5]: 17.28%; % 1440 min (residue percentage) [5]: 0.00%
3 | Cc1ccccc1CO[P@@](=O)(CO[C@H](C)Cn1cnc2c(N)ncnc21)N[C@@H](C)C(=O)OC(C)C [Compound 7b] | 0.0837 | 0.275 | 100 | 31.28 | 8.33 | 0.09 | 0.00 | 100 | 93.5 | 91.6 | 90.5 | 90.1 | 14.7 | 147.4 | 4.7 | 5 | 0.03114 | > 10 | 100 | 82.76 | CC50 (in vitro; comparative test, Table 4): > 100 µM; % 120 min (residue percentage) [5]: 51.39%; % 360 min (residue percentage) [5]: 13.16%; % 1440 min (residue percentage) [5]: 0.00%
4 | CC(C)OC(=O)OCOP(=O)(CO[C@H](C)Cn1cnc2c(N)ncnc21)OCOC(=O)OC(C)C [TDF, Tenofovir Disoproxil Fumarate] | 0.017 |  |  |  |  |  |  |  |  |  |  |  | 21.3 |  |  |  |  |  |  |  | fraction excreted out of the body in original form [6]: ~80%; fraction metabolized and activated into the Tenofovir parent drug under the action of esterase [6]: less than 20%

From patent US10233202B2, “Tenofovir monobenzyl ester phosphamide prodrug, preparation method and use thereof” (JIANGSU TASLY DIYI PHARMACEUTICAL CO., LTD., priority 2015, dated 2019)
